The record followed here is patent US11918610B2, “Methods for diagnosis and treatment of type 1 diabetes” (priority 2018, dated 2024).

Test [1] concerns non-obese diabetic mice (NOD/ShiLtJ) colonized with E. coli VT-55. The test is classed as in vivo. The conditions noted are these: NOD mice gavaged with E. coli VT-55; regimen of each agent as in Table 3; positive control (no therapy) 16, negative controls 24 and 26.
Method: For this study non-obese diabetic mice (NOD/ShiLtJ) 8 weeks old (Jackson Laboratory, Bar Harbor, Me., USA) were housed and bred under specific pathogen-free conditions. Mice were maintained in a temperature controlled (22±2° C.) animal facility with a 12 hour light/dark cycle and were allowed free access to food and acidified drinking water. To increase the efficacy of E. coli transfer, all animals were exposed to antibiotic treatment before the transfer of E. coli. Starting at three weeks of age, recipient mice were treated with ampicillin (1 g/L) in the drinking water for the next 4 weeks. The bacterial strains used: E. coli strain VT-55—a wild-type, amyloid-producing strain. E. coli VT-55 bacteria were administered with oropharyngeal gavage to 8 week old female mice at 10^8 CFU, 2 times a week. Acceleration of T1D development was accessed by measuring blood glucose in a manner consistent with diabetes monitoring, using a FreeStyle Lite meter and test strips (Abbott). Blood glucose was evaluated weekly via a tail vein. T1D development was defined as occurring after two consecutive blood glucose measurements of at least 250 mg/dL.
TTR was expressed in E. coli VT-243. The TTR protein was precipitated from the supernatant of a 48 hour culture of E. coli VT-243 after centrifugation (12,000×g, 20 minutes 4° C.) of the lysed cells in the gradient 40-90% ammonium sulfate fraction (1.8-3.6 M). The precipitate that contained TTR was dialyzed overnight against 10 mM sodium phosphate buffer, pH 7.5, 100 mM KCl, 1 mM EDTA. The same volume of 200 mM sodium acetate buffer (pH 4.4, 100 mM KCl, 1 mM EDTA) was added to achieve a final pH of 4.5, and the mixture was then incubated for 18 hours at 37° C. Following centrifugation (45 min, 30,000×g, 4° C.), the supernatant was gel filtrated (Superdex 75) to elute phosphate buffer.
To develop nanoparticles with siRNA, we used cholesterol, distearoyl-sn-glycerol-3-phosphocholine (DSPC) and PEG2000-DMG (all Sigma). Nanoparticles were prepared by dissolving the 306013 lipidoid, cholesterol, DSPC, and PEG2000-DMG with final molar ratio of 50:38.5:10:1.5 in a 90% ethanol enriched with 10% 10 nM sodium citrate. Particles were formed following vortexing of equal volumes of siRNA solution with the lipid solution and subsequent dilution in PBS. Mice were orally gavaged with nanoparticles loaded with siRNA at a dose of 5 mg/kg.
The EcVac vaccine consisted of conjugates containing the 0-antigens of serotypes 06 of E. coli VT-55. […] The suspension for iv administration was made in TBS, (pH 7.4; 25 mmol Tris, 137 mmol NaCl, 2.8 mmol KCl).
Balb/c mice were immunized (10 μg) intraperitoneally and boosted (1 μg) subcutaneously with the E. coli amyloid isolated as previously described. Splenocytes were removed under sterile conditions, washed and hybridized to murine plasmacytoma parent cell line SP2/OAg14 using 40% polyethylene glycol and a spleen cell to plasmacytoma cell ratio of 5:1. Cells were plated in 96-well microtiter (Sarstedt) plates at 100,000 cells/per well with DMEM supplemented with 10% fetal bovine serum. Following 48h, cells were supplemented with hypoxanthine (100 PM) containing medium. After three washes with PBS-1% BSA, the presence of specific antibody binding was detected by ELISA. Serotype specific wells were cloned. Pristine-primed BALB/c mice were IP injected with 1×10^7 hybridoma cells. Ascites fluid was collected 14 days later, centrifuged (5000 g, 20 min, Eppendorf) and stored at −80° C. before use.
Test [2] deals with MG1655 wild-type lysogenic strain (bacteriophage λ) biofilm. The test is described as follows: Prophage induction with mitomycin C in E. coli biofilm: PFU numbers (phage plaque assay). The test is classed as cell-based, Escherichia coli. The note with it: for PFU numbers: prophage induction with 1 μg/ml mitomycin C, 48h biofilm; for PFU: Table 17, prophage induction with mitomycin C, 48-h biofilm. The protocol: (§1) We used 48h old E. coli biofilms formed by amyloid-producing E. coli VT-55. Bacteriophages λ (from our collection) were employed. E. coli lysogenic strains were obtained by infection of host bacteria with phage. Prophages were induced with 1 μg/ml mitomycin C (Sigma). To confirm lytic development of bacteriophage we measured an increase in the number of plaque forming units (PFU) and the reduction of bacterial colony-forming units CFU numbers, throughout the 4 h to 10 h period (Table 2). The PFU number in E. coli biofilm was determined by the production of plaques on control E. coli culture.
(§2) Next, the E. coli phage/E. coli bacterial cell ratio, which represents the “lytic potential” (FIG. 6) (Waller et al., 2014), was analyzed. E. coli strain MG1655 was used as a host for prophage induction experiments (Jensen 1993). Bacteria were subcultured from freezer stocks onto Mueller-Hinton agar plates (Oxoid) and incubated at 37° C. overnight. All subsequent liquid subcultures were derived from colonies isolated from these plates and were grown in Mueller-Hinton broth (Oxoid). Bacteriophage λ from the inventors' collection was employed. Bacteriophage suspensions were routinely stored in TM buffer (10 mM Tris-HCl, 10 mM MgSO4, pH 7.2) at 4° C. E. coli lysogenic strains were obtained by infection of E. coli MG1655 with the phage and titration of cells on Mueller-Hinton agar plates as previously described (Maniatis et al. 1989). For prophage induction, Mitomycin C (Sigma-Aldrich) was prepared in 0.1 M phosphate buffer (pH 7.2), filtered through a 0.22-μm-pore filter (Millipore Corp., Bedford, Mass.), and stored at 4° C. (Georgopoulos et al., 2002). A modified protocol according to Reyrolle et al. designed for prophage induction on 96-well plates was used (Reyrolle et al., 1982; McDonald et al., 2010). Twenty microliters of an overnight E. coli MG1655 culture, with an absorbance at 600 nm of 0.2, was dispensed in each well of a 96-well flat-bottom polystyrene tissue culture microtiter plate (Sarstedt, Numbrecht, Germany), after which 180 μl of MHB (Oxoid) was added. The plates were incubated at 37° C. for 48 h. Induction of prophages in the E. coli biofilms was provoked by the addition of mitomycin C (Sigma) to a final concentration 1 μg/ml to each well. The plates were further incubated at 37° C. and samples were taken at 4, 6, 8, and 10 h following prophage induction.
(§3) The inventors evaluated how the die-off of E. coli populations due to prophage induction could lead to amyloid release. The inventors used 48-h old E. coli biofilms with confirmed curli expression. Curli formation on 48-h colonies was visible with the naked eye on petri dishes (data not shown). Prophages were induced with mitomycin C. Lytic bacteriophage development was confirmed as an increase in plaque forming units (PFU) and a reduction in colony-forming units (CFU).
(§4) CFU and PFU were determined as follows. To estimate CFU, biofilms were thoroughly scraped (Tetz et al., 2009). Well contents were aspirated, placed in 1 ml of isotonic phosphate buffer (0.15 M, pH 7.2), and the total CFU number was determined by serial dilution and plating on Mueller-Hinton agar. The number of phage virions produced after induction was estimated by phage titration (using strain MG1655 as a host) and phage plaque assay. Following induction, at the indicated times 200-μl samples of biofilms were collected. Then, 30 μl of chloroform was added to each sample, the mixture was vortexed and centrifuged at 3000×g for 5 min in a microcentrifuge (Eppendorf 5415D). A supernatant fraction of the bacterial lysate was further used. The phage titer (number of phages per ml) was determined using the double agar overlay assay method as described previously (Yuan et al., 2012). To this end, 2.5 μl of each titration point of phage lysate was spotted on Mueller-Hinton agar (Oxoid). […]

Test [3] relates to MG1655 wild-type lysogenic strain biofilm. The test is described as follows: Prophage induction with mitomycin C in E. coli biofilm: CFU numbers. The test is classed as cell-based, Escherichia coli. The note with it: for CFU numbers: prophage induction with 1 μg/ml mitomycin C, 48h biofilm; for CFU: Table 17, prophage induction with mitomycin C, 48-h biofilm. The protocol:
as §1, §2, §3, §4

Test [4] concerns E. coli biofilm. Put plainly: Release of bacterial amyloid from E. coli biofilm after prophage induction (Congo Red absorbance of supernatant). It counts as cell-based, Escherichia coli. The conditions noted are these: for Congo Red absorbance of biofilm supernatant (release of bacterial amyloid): 10h following prophage induction. The protocol:
Next, the effect of prophage induction on E. coli biofilm to amyloid release was evaluated. The amount of amyloid fibers in the biofilm supernatant was determined following prophage induction. Biofilm supernatant was collected and centrifuged at 5000 rpm (Eppendorf 5113) to sediment cells. Supernatant was filtered with […] and heated to eliminate contaminating proteins by incubating in a boiling water bath for 10 minutes, under the assumption that the aggregated β-sheet amyloid is heat resistant. To quantify the amount of aggregated amyloid, its binding to the amyloid diagnostic dye Congo Red (CR) was evaluated (Table 12). CR added to a final concentration of 10 μg/mL at pH 4.5 was tested using a BioRad UV/Vis spectrophotometer at 25° C. After 5 minutes of equilibration, the absorbance spectra were recorded from 400 to 600 nm. Each trace represents the average of 3 accumulated spectra.
Next, the inventors evaluated the effect of prophage induction on the amount of amyloid fibers released into the biofilm supernatant. Supernatant CR depletion assays were performed as follows. The amount of bacterial amyloid following prophage induction was measured in the supernatant of E. coli MG1655 biofilms. Biofilms were obtained as described above. Biofilm supernatant was taken at 4, 6, 8, and 10 h following prophage induction. To isolate aggregated amyloid fibers from the supernatant, the supernatant was centrifuged at 10,000×g, filtered through a 0.22 μm filter to separate bacterial cells, and treated with proteinase K to eliminate contaminating proteins. CR (Sigma-Aldrich) was added to a final concentration of 10 μg/ml from a filtered stock solution of 1 mg/ml (Reichhardt et al., 2015). After 5 min of equilibration, absorbance spectra were recorded from 400 to 600 nm (SmartSpec 3000, Bio-Rad). Each trace represents the average of 5 accumulated spectra. For all samples, spectra of corresponding nutrient MHB solutions with CR were used as blanks.
To quantify the amount of aggregated amyloid, its binding to the amyloid-diagnostic dye was evaluated by a Congo red (CR) assay (Reichhardt et al., 2015). A significant increase in CR absorbance was observed upon binding to supernatant 8 h following prophage induction as compared with control samples (FIG. 7). Like for other curli fibers, […] of the E. coli supernatant induced a spectral shift of the CR solution, with a maximum difference in absorbance between CR alone and CR bound to amyloid fibers at ˜541 nm (Chapman et al., 2002).

Setting [5] is: 48-h old E. coli biofilms, mitomycin C 1 μg/ml.

No end group written: not given here.

With `O=C(O)C1CSC2=C(C3CC3)C(Cc3cccc4ccccc34)CC(=O)N21` (stereo not drawn) [8-cyclopropyl-7-(1-naphthylmethyl)-5-oxo-2,3,6,7-tetrahydro-5H-[1,3]thiazolo[3,2-a]pyridine-3-carboxylic acid], in test [1], the “Median T1D incidence 50% (weeks)” value was determined as 21 weeks.

Take `C[C@H]1c2cccc(O)c2C(=O)C2=C(O)[C@]3(O)C(=O)C(C(N)=O)=C(O)[C@@H](N(C)C)[C@@H]3[C@@H](O)[C@@H]21` [Doxycycline, reference compound]: the “Median T1D incidence 50% (weeks)” value in test [1] is 25 weeks.

As for `CO[C@@]12[C@H](COC(N)=O)C3=C(C(=O)C(C)=C(N)C3=O)N1C[C@@H]1N[C@@H]12` [Mytomicin C], the PFU numbers was 2.3log10 +/− log10 PFU/ml in test [2] (4 h), 9.3log10 +/− log10 PFU/ml in test [2] (6 h), 10.4log10 +/− log10 PFU/ml in test [2] (8 h) and 11.2log10 +/− log10 PFU/ml in test [2] (10 h). The CFU numbers in test [3] (4 h) is recorded as 8.8log10 +/− log10 CFU/ml; in test [3] (6 h), 8.2log10 +/− log10 CFU/ml; in test [3] (8 h) it was 7.6log10 +/− log10 CFU/ml; in test [3] (10 h), 7.4log10 +/− log10 CFU/ml. Moreover, the “Congo Red absorbance of biofilm supernatant (release of bacterial amyloid)” value in test [4] (wavelength 400 nm) is recorded as 0; in test [4] (wavelength 450 nm), 0.156; in test [4] (wavelength 500 nm), 0.338; in test [4] (wavelength 541 nm), 0.421; in test [4] (wavelength 550 nm) it was 0.345; in test [4] (wavelength 600 nm), 0.015.

For the compound `CO[C@@]12[C@H](COC(N)=O)C3=C(C(=O)C(C)=C(N)C3=O)N1C[C@@H]1N[C@@H]12` [mitomycin C, reference compound], the “Plaque forming units (PFU) after prophage induction (in words)” value in test [2] (setting [5]) is “increase”. In addition, in test [3] (setting [5]), the “Colony-forming units (CFU) after prophage induction (in words)” value is “reduction”. Moreover, the “Amyloid release from preformed E. coli biofilms after prophage activation (in words)” value in test [4] (in vitro, mitomycin C 1 μg/ml, 48 h biofilms) is reported as “pronounced amyloid release”.

For `CO[C@@]12[C@H](COC(N)=O)C3=C(C(=O)C(C)=C(N)C3=O)N1C[C@@H]1N[C@@H]12` [mytomicin C], the PFU in test [2] (4 h) turned out to be 2.3 log10 PFU/ml; in test [2] (6 h) it was 9.3 log10 PFU/ml; in test [2] (8 h) it was 10.4 log10 PFU/ml; in test [2] (10 h), 11.2 log10 PFU/ml. Further, the CFU is reported as 8.8 log10 CFU/ml in test [3] (4 h), 8.2 log10 CFU/ml in test [3] (6 h), 7.6 log10 CFU/ml in test [3] (8 h) and 7.4 log10 CFU/ml in test [3] (10 h).

With `CCCCCCCO[C@H]1O[C@H](CO)[C@@H](O)[C@H](O)[C@@H]1O` [n-Heptyl α-D-mannose, reference compound], the “Median T1D incidence 50% (weeks)” value in test [1] was 22 weeks.

Regarding “GGVLVQPG [Larazotide, Glycylglycyl-L-valyl-L-leucyl-L-valyl-L-glutaminyl-L-prolyl-glycine, reference compound]”, the “Median T1D incidence 50% (weeks)” value in test [1] amounted to 24 weeks.

As to “Transthyretin: mouse Transthyretin expressed in E. coli VT-243”, the “Median T1D incidence 50% (weeks)” value in test [1] was found to be 24 weeks.
